The source made the active and inactive calls.
What was measured:
[1] = inhibitors of firefly luciferase expression or activity, dose response, H4 neuroglioma cells, luminescence (AID 1990); type: functional, cell-based
[2] = inhibitors of SNCA 5'UTR-driven reporter translation, confirmation, H4 neuroglioma cells, luminescence (AID 1988); type: functional, cell-based
[3] = Luminescence Cell-Based Dose Response HTS to Identify Inhibitors of 5'UTR Stem-Loop Driven Prion Protein mRNA Translation in H4 Neuroglioblastoma Cells. [Related pubchem assays: 1827 (Project Summary), 1813 (Primary HTS)]; type: functional
[4] = molecular target: T1, DNA repair protein RAD52 homolog (Homo sapiens, UniProt P43351); type: functional, biochemical
T1 sequence (P43351 whole entry): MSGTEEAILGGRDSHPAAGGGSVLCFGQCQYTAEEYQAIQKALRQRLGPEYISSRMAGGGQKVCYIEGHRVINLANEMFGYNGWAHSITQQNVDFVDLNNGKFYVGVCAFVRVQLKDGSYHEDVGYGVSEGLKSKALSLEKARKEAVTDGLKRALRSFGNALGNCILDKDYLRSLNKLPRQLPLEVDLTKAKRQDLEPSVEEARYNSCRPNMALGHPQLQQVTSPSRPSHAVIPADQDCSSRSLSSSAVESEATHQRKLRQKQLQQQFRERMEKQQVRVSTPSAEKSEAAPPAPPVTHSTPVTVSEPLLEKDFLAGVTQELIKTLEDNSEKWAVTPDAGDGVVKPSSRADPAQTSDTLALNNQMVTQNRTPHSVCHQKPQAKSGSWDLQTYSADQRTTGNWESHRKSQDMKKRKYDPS

[5] = LGR2 antagonists, dose response, cell-based, HEK293, CRE-luciferase reporter, cherry pick, set 2 (AID 743343); type: functional;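 further: transfected cells were stimulated with diluted bursicon conditioned medium after compound addition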
[6] = HepG2 cell cytotoxicity, dose response, cytotoxicity control, plate reader, cherry-pick, antagonist series (AID 743416); type: functional, cell-based
[7] = MC4R antagonists, dose response, counter-screen for LGR2 antagonist project, cell-based, plate reader, cherry pick (AID 743444); type: functional;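 further: transfected HEK 293 cells stimulated with alpha-MSH peptide; potency of inhibitors of the alpha-MSH evoked signal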
cells [8] = type: functional, cell-based
cells [9] = type: functional, cell-based; remark: listed apart in the source
[10] = molecular target: T2, Rac GTPase-activating protein 1 (Homo sapiens, UniProt Q9H0H5); assay: MgcRacGAP GTPase-activating activity inhibitors, confirmation, biochemical, ADP Hunter fluorescence, primary and confirmatory (AID 624330); type: functional
T2 sequence (Q9H0H5 whole entry): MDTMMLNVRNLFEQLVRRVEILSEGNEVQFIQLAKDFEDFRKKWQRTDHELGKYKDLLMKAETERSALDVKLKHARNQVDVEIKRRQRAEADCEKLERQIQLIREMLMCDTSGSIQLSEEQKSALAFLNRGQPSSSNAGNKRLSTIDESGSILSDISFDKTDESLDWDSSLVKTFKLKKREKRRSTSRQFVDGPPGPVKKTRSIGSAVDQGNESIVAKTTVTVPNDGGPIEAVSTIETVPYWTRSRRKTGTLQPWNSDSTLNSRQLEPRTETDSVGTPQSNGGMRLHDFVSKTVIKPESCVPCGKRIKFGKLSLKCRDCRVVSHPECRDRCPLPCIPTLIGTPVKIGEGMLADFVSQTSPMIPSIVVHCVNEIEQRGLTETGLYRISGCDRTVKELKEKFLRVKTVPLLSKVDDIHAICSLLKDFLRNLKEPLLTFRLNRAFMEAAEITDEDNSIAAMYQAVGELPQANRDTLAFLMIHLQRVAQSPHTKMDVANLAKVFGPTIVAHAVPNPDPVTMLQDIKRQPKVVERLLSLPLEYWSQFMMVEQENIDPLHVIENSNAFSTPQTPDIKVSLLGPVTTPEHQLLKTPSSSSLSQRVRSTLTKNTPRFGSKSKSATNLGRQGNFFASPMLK

[11] = P. falciparum Dd2 growth inhibitors, dose response, SYBR Green, dry powder samples (AID 1159566); type: functional, cell-based;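 further: potency for growth inhibition with lower SYBR green DNA signal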
[12] = P. falciparum 3D7-ScDHODH growth inhibitors, dose response, SYBR Green, dry powder samples (AID 1159570); type: functional, cell-based;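 further: parasite growth measured after 72 hours of compound exposure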
[13] = P. falciparum Dd2 growth inhibitors, dose response, SYBR Green, cherry-picked samples (AID 1159567); type: functional, cell-based
[14] = P. falciparum ATP4 D1247Y mutant growth inhibitors, dose response, NITD609-resistant line, SYBR Green, dry powder (AID 1159571); type: functional, cell-based;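 further: parasites synchronized at ring stage by sorbitol before testing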
[15] = HepG2 cell cytotoxicity, dose response, cytotoxicity control, plate reader, dry powder samples (AID 1159569); type: functional, cell-based;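 further: inhibitor potency with signal falling toward the positive control level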
[16] = molecular target: T3, Mannose-6-phosphate isomerase (Homo sapiens, UniProt P34949); assay: human PMI inhibitors, high substrate, primary screen, biochemical, fluorescence intensity, high mannose 6-phosphate (AID 1220)
T3 sequence (P34949 whole entry): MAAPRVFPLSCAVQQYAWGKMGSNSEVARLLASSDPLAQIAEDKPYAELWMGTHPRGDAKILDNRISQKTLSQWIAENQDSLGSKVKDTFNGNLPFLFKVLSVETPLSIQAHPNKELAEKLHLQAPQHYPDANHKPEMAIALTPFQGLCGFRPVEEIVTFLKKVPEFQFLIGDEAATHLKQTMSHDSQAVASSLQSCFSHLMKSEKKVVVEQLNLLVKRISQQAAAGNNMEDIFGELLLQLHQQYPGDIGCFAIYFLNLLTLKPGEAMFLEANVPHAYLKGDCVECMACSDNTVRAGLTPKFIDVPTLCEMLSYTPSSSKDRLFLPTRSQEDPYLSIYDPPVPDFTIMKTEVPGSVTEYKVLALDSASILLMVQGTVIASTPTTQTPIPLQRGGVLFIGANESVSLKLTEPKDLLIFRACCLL

[17] = cytotoxicity toward NIH3T3 fibroblasts, dose response, counter-screen, cell-based, ATP luminescence, mouse fibroblasts (AID 2010); type: functional;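 further: cells exposed to compound for about 90 hours before reading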
[18] = Luminescence Cell-Based Dose Response HTS to Identify Activators of Luciferase Translation or Activity in H4 […] Cells. [Related pubchem assays: 1829 (Project Summary), 1814 (Primary HTS)]; type: functional
[19] = Luminescence Cell-Based Dose Confirmation HTS to Identify Activators of 5'UTR Stem-Loop Driven Alpha-Synuclein mRNA Translation in H4 Neuroglioblastoma Cells. [Related pubchem assays: 1829 (Project Summary), 1814 (Primary HTS)]; type: functional
H4 = assay: Luminescence Cell-Based Dose Response HTS to Identify Activators of 5'UTR Stem-Loop Driven Prion Protein mRNA Translation in H4 Neuroglioblastoma Cells. [Related pubchem assays: 1829 (Project Summary), 1814 (Primary HTS)]; type: functional; settings: Homo sapiens
[20] = inhibitors of intracellular T. cruzi replication, confirmation, NIH3T3 host cells, beta-gal luminescence (AID 2044); type: functional, cell-based;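 further: intracellular parasites grown in NIH/3T3 mouse fibroblasts as host cells; luminescent beta-galactosidase reporter signal from transgenic T. cruzi replicating inside host cells; inhibitors lower the luminescence signal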
[21] = HepG2 cell cytotoxicity, dose response, cytotoxicity control, cherry-picked samples (AID 1159577); type: functional, cell-based
[22] = A549 cell cytotoxicity, dose response, cytotoxicity control, plate reader, cherry-pick, antagonist series (AID 743412); type: functional, cell-based
cells [23] = type: functional, cell-based; remark: listed apart in the source
cells [24] = type: functional, cell-based; remark: listed apart in the source
[25] = molecular target: T4, Replicative DNA helicase DnaB (Mycobacterium tuberculosis, UniProt P9WMR3); assay: DnaB intein splicing inhibitors, dose response, biochemical, cell-free fluorescence (AID 449749); type: functional
T4 sequence (P9WMR3 whole entry): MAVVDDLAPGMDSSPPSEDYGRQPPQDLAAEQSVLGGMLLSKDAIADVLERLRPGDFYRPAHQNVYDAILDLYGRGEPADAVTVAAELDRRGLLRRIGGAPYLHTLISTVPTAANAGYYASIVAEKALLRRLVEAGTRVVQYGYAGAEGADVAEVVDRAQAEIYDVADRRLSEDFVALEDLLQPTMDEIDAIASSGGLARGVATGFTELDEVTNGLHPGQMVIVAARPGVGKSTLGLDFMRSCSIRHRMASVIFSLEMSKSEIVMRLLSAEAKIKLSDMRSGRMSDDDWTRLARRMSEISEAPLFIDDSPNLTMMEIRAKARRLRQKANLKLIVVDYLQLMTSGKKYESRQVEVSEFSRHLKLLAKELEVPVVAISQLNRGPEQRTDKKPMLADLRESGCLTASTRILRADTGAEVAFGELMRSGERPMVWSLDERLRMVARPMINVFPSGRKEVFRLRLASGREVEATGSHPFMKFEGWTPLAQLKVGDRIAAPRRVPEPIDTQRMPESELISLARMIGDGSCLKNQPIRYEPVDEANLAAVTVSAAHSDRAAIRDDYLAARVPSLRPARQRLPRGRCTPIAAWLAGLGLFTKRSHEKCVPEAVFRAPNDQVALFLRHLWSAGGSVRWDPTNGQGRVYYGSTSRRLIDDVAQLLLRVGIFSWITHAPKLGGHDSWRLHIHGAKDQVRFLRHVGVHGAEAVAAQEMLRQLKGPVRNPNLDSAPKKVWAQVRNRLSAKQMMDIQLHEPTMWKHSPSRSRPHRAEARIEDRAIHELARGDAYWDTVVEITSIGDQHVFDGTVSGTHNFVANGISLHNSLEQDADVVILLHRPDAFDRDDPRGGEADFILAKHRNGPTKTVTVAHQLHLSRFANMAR

Protein RecA = molecular target: T5, Protein RecA (Mycobacterium tuberculosis, UniProt P9WHJ3); assay: Fluorescence Cell-Free Homogeneous Dose Retest to Identify Inhibitors of RecA-Intein Splicing Activity. [Related pubchem assays (depositor defined):AID2097, AID2223, AID489010, AID492950]; type: functional
T5 sequence (P9WHJ3 whole entry): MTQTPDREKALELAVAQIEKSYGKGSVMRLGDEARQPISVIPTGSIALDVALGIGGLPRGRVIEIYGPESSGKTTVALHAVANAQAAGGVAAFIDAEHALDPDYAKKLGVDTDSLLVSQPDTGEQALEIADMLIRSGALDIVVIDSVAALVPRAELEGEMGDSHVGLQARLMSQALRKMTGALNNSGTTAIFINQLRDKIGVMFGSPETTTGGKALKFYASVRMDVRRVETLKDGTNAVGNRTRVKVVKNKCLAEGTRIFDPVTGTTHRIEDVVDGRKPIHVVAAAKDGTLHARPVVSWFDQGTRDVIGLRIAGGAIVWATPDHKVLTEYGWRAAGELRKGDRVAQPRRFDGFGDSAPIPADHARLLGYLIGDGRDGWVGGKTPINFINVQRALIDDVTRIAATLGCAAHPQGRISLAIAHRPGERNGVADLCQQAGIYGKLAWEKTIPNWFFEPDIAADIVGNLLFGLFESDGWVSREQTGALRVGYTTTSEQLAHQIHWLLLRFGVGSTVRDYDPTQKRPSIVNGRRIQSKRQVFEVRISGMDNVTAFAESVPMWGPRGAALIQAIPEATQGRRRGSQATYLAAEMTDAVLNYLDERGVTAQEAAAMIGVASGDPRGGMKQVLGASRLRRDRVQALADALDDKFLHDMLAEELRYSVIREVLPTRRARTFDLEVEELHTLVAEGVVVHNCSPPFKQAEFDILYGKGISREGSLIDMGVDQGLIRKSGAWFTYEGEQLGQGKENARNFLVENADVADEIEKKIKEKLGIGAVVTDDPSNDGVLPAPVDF

CC(=O)OCCc1c2ccccc2c(CCCN(C)C)c2ccccc12
EC50 [1]: > 120 µM (not active)
EC50 [2]: > 120 µM (not active)
EC50 [3]: > 120 µM (not active)
AC50 [4]: 11.2 µM (active)

CCOC(=O)c1sc(NC(=O)Nc2ccccc2F)nc1C
AC50 [5]: 2.48 µM (active)
AC50 [6]: > 52 µM (inactive)
AC50 [7]: 4.34 µM (active)

C[C@H]1CN([C@@H](C)CO)C(=O)CCCn2nncc2CO[C@@H]1CN(C)C(=O)Nc1ccc(N2CCN(C)CC2)cc1
AC50 [4]: 28.2 µM (active)

C/C(=N\NC(=O)CN1CCCCC1)c1ccccc1O
EC50 (cells [8]): 29.7 µM (active)
EC50 (cells [9]): > 350 µM (not active)

CCOc1cc(/C=N/NC(=O)c2c(-c3ccccc3)noc2C)ccc1O
EC50 (cells [8]): > 350 µM (not active)
IC50 [10]: 55.5 µM (active)
EC50 (cells [9]): > 350 µM (not active)

COc1cccc(S(=O)(=O)N2CCC3(CC2)CN[C@H](CO)c2[nH]c4cc(OC)ccc4c23)c1
AC50 [11]: 2.53 µM (active)
AC50 [12]: 4.68 µM (active)
AC50 [13]: 2.6 µM (active)
AC50 [14]: 2.52 µM (active)
AC50 [15]: 33.2 µM (active)

CCOc1cc(N2CCOCC2)c(OCC)cc1N=C(S)NCCCOC
IC50 [16]: > 50 µM (not active)

COc1cccc(-c2nc(N3CCN(C)CC3)c3ccccc3n2)c1O
EC50 [17]: > 60 µM (not active)
EC50 [18]: 12.9 µM (active)
EC50 [19]: > 120 µM (not active)
EC50 (H4): > 120 µM (not active)
EC50 [20]: < 0.1 µM (active)
AC50 [4]: 3.52 µM (active)

N#C[C@H]1[C@@H](c2ccc(C#Cc3ccccc3F)cc2)[C@@H](CO)N1C(=O)C1CCCC1
AC50 [11]: 1.18 µM (active)
AC50 [12]: 1.69 µM (active)
AC50 [13]: 1.84 µM (active)
AC50 [14]: 1.88 µM (active)
AC50 [15]: 54.2 µM (active)
AC50 [21]: > 39 µM (inactive)

OC[C@@H]1[C@H](c2ccc(-c3ccccc3)cc2)[C@H]2CN(CCC(F)(F)F)CCCCN12
AC50 [11]: 0.623 µM (active)
AC50 [12]: 1.15 µM (active)
AC50 [13]: 2.13 µM (active)
AC50 [14]: 1.29 µM (active)
AC50 [15]: 18 µM (active)
AC50 [21]: 21.7 µM (active)

COc1ccccc1CN1CC2(C1)[C@H](c1ccccc1)[C@@H](CO)N2Cc1ccccc1
AC50 [11]: 0.477 µM (active)
AC50 [12]: 0.765 µM (active)
AC50 [14]: 0.656 µM (active)
AC50 [15]: 24.9 µM (active)

C=CCc1c(C)nc2cc(-c3ccc(C)cc3)nn2c1O
AC50 [5]: 26.4 µM (active)
AC50 [22]: 13.6 µM (active)
AC50 [6]: 22.6 µM (active)
AC50 [7]: 26.2 µM (active)

CCC(c1nnnn1Cc1ccco1)N(CCc1ccccc1)Cc1cc2cc(C)ccc2nc1O (stereo not drawn)
IC50 (cells [23]): > 29.9 µM (inactive)
EC50 (cells [24]): > 29.9 µM (inactive)

CCCc1n[nH]c2c1C(c1ccoc1)C(C#N)=C(N)O2 (stereo not drawn)
EC50 (cells [8]): > 350 µM (not active)
AC50 [25]: 4.51 µM (active)
EC50 (cells [9]): > 350 µM (not active)
EC50 (Protein RecA): 2.39 µM (active)

Cc1nc(NCCc2ccccc2)c(C#N)c(C)c1[N+](=O)[O-]
EC50 (cells [8]): > 350 µM (not active)
EC50 (cells [9]): > 350 µM (not active)

Reference: ChEMBL document CHEMBL1201862, “PubChem BioAssay data set” (2004)
